Measurements taken from PubChem BioAssay AID248 (DTP/NCI, 2004).
Values joined by “and” are separate entries in the source; they are usually repeats but may differ in a detail not shown here. Equal values may be shown once. Toxic doses and inconclusive results are not listed. Cut-off read from the data, not from the text of the source: active = T/C of 150% or more; inactive = T/C below 125%.

Tested on: L1210 leukemia ip in BDF1 mice, survival T/C
Assay: NCI In Vivo Anticancer Drug Screen. Data for tumor model L1210 Leukemia (intraperitoneal) in B6D2F1 (BDF1) mice
Details: endpoint: mean survival time, higher = longer survival
Procedure, shortened: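 Transplanted-tumor mice were given test agent; controls received vehicle only. Survival readings from the two groups were divided (treated over control).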

[1] = dose: 100.0 mg/kg/injection, schedule: Q04DX002 (ip), vehicle: saline with Tween-80
[2] = dose: 200.0 mg/kg/injection, schedule: Q04DX002 (ip), vehicle: saline with Tween-80
[3] = dose: 100.0 mg/kg/injection, schedule: Q01DX001 (ip), vehicle: saline with Tween-80
[4] = dose: 200.0 mg/kg/injection, schedule: Q01DX001 (ip), vehicle: saline with Tween-80
[5] = dose: 400.0 mg/kg/injection, schedule: Q01DX001 (ip), vehicle: saline with Tween-80
[6] = dose: 100.0 mg/kg/injection, schedule: Q04DX003 (ip), vehicle: saline with Tween-80
[7] = dose: 200.0 mg/kg/injection, schedule: Q04DX003 (ip), vehicle: saline with Tween-80
[8] = dose: 400.0 mg/kg/injection, schedule: Q04DX002 (ip), vehicle: saline with Tween-80
[9] = dose: 400.0 mg/kg/injection, schedule: Q04DX003 (ip), vehicle: saline with Tween-80
[10] = dose: 100.0 mg/kg/injection, schedule: Q04DX003 (ip), vehicle: Klucel (hydroxypropylcellulose) (HPC)
[11] = dose: 200.0 mg/kg/injection, schedule: Q04DX003 (ip), vehicle: Klucel (hydroxypropylcellulose) (HPC)
[12] = dose: 400.0 mg/kg/injection, schedule: Q04DX003 (ip), vehicle: Klucel (hydroxypropylcellulose) (HPC)
[13] = dose: 100.0 mg/kg/injection, schedule: Q01DX005 (ip), vehicle: saline
[14] = dose: 200.0 mg/kg/injection, schedule: Q01DX005 (ip), vehicle: saline
[15] = dose: 100.0 mg/kg/injection, schedule: Q01DX001 (ip), vehicle: saline
[16] = dose: 200.0 mg/kg/injection, schedule: Q01DX001 (ip), vehicle: saline
[17] = dose: 400.0 mg/kg/injection, schedule: Q01DX001 (ip), vehicle: saline
[18] = dose: 25.0 mg/kg/injection, schedule: Q01DX009 (ip), vehicle: Klucel (hydroxypropylcellulose) (HPC)

Measured: T/C

Cc1cc(C)c2ccc(SC#N)c-2c(C)c1
inactive: dose: 100.0 mg/kg/injection, schedule: Q01DX001 (ip), vehicle: carboxymethylcellulose (CMC) 106 % of control | dose: 200.0 mg/kg/injection, schedule: Q01DX001 (ip), vehicle: carboxymethylcellulose (CMC) 95 % of control | dose: 400.0 mg/kg/injection, schedule: Q01DX001 (ip), vehicle: carboxymethylcellulose (CMC) 101 % of control

CCC[CH2][Sn]([CH2]CCC)([CH2]CCC)[CH2]CC(N)=O
inactive: dose: 50.0 mg/kg/injection, schedule: Q01DX009 (ip), vehicle: saline 96 % of control and 106 % of control | dose: 100.0 mg/kg/injection, schedule: Q01DX009 (ip), vehicle: saline 96 % of control and 106 % of control | dose: 200.0 mg/kg/injection, schedule: Q01DX009 (ip), vehicle: saline 101 % of control

CCC(C)N=Cc1ccccc1O.CCC(C)N=Cc1ccccc1O.[Cu] (centres undefined)
inactive: dose: 9.5 mg/kg/injection, schedule: Q01DX001 (ip), vehicle: other 100 % of control | dose: 19.0 mg/kg/injection, schedule: Q01DX001 (ip), vehicle: other 107 % of control | dose: 38.0 mg/kg/injection, schedule: Q01DX001 (ip), vehicle: other 100 % of control

O=C(CBr)c1ccc2cc(Br)c3ccccc3c2c1
inactive: dose: 55.0 mg/kg/injection, schedule: Q01DX Z (ip), vehicle: methylcellulose (MC) 90 % of control | dose: 83.0 mg/kg/injection, schedule: Q01DX Z (ip), vehicle: methylcellulose (MC) 94 % of control | dose: 125.0 mg/kg/injection, schedule: Q01DX Z (ip), vehicle: methylcellulose (MC) 102 % of control

OCC1CCN1C(c1ccccc1)c1ccccc1 (centres undefined)
inactive: [1] 93 % of control | [2] 86 % of control

NN1C(=O)c2c(Cl)c(Cl)c(Cl)c(Cl)c2C1=O
inactive: [3] 87 % of control | [4] 87 % of control | [5] 93 % of control

CCN(C=O)c1ccc(NC=O)cc1
inactive: dose: 50.0 mg/kg/injection, schedule: Q01DX001 (ip), vehicle: saline with Tween-80 104 % of control | [3] 94 % of control and 100 % of control | [1] 103 % of control | [6] 97 % of control | [4] 94 % of control and 91 % of control | [2] 97 % of control | [7] 95 % of control and 91 % of control | [5] 94 % of control | [8] 101 % of control | [9] 103 % of control and 108 % of control

C/C(=C/c1c(C)c([N+](=O)[O-])c(C)c(C)c1[N+](=O)[O-])C(=O)O
inactive: dose: 100.0 mg/kg/injection, schedule: Q01DX001 (ip), vehicle: Klucel (hydroxypropylcellulose) (HPC) 100 % of control | [10] 114 % of control | dose: 200.0 mg/kg/injection, schedule: Q01DX001 (ip), vehicle: Klucel (hydroxypropylcellulose) (HPC) 91 % of control | [11] 97 % of control | dose: 400.0 mg/kg/injection, schedule: Q01DX001 (ip), vehicle: Klucel (hydroxypropylcellulose) (HPC) 107 % of control | [12] 101 % of control

O=C(O)C1CC1(Br)Br (centres undefined)
inactive: dose: 100.0 mg/kg/injection, schedule: Q04DX003 (ip), vehicle: acetone 87 % of control

COP(=S)(OC)N(C)C
inactive: dose: 75.0 mg/kg/injection, schedule: Q01DX001 (ip), vehicle: saline 101 % of control | dose: 150.0 mg/kg/injection, schedule: Q01DX001 (ip), vehicle: saline 96 % of control

Cc1ccc(S(=O)(=O)OC2C(C(O)CO)OC3OC(C)(C)OC32)cc1 (centres undefined)
inactive: [1] 90 % of control | [2] 97 % of control | [8] 101 % of control

CCSC(C(O)C(O)C(O)CO)n1ccc(=O)[nH]c1=O (centres undefined)
inactive: [13] 97 % of control | [14] 93 % of control

CN=C(N)C(N)=NC
inactive: [6] 104 % of control | [7] 102 % of control | [9] 95 % of control

COc1ccccc1NC(=O)CSC(N)=O
inactive: dose: 75.0 mg/kg/injection, schedule: Q## X000 (ip), vehicle: carboxymethylcellulose (CMC) 100 % of control | dose: 125.0 mg/kg/injection, schedule: Q## X000 (ip), vehicle: carboxymethylcellulose (CMC) 105 % of control | dose: 175.0 mg/kg/injection, schedule: Q## X000 (ip), vehicle: carboxymethylcellulose (CMC) 100 % of control | dose: 200.0 mg/kg/injection, schedule: Q01DX Z (ip), vehicle: carboxymethylcellulose (CMC) 104 % of control | dose: 400.0 mg/kg/injection, schedule: Q01DX Z (ip), vehicle: carboxymethylcellulose (CMC) 105 % of control

CC(C)(CCN)[N+](=O)[O-]
inactive: [15] 96 % of control | [16] 96 % of control | [17] 102 % of control

CC1(C)NCC(=O)N1C(Cc1ccccc1)C(=O)O (centres undefined)
inactive: [15] 100 % of control | [16] 97 % of control | [17] 100 % of control

CCCCC1C(=O)N=C2C=CC=CN2C1=O (centres undefined)
inactive: [18] 102 % of control | dose: 50.0 mg/kg/injection, schedule: Q01DX009 (ip), vehicle: Klucel (hydroxypropylcellulose) (HPC) 100 % of control | dose: 100.0 mg/kg/injection, schedule: Q01DX009 (ip), vehicle: Klucel (hydroxypropylcellulose) (HPC) 110 % of control | dose: 100.0 mg/kg/injection, schedule: Q04DX003 (ip), vehicle: other 104 % of control | dose: 200.0 mg/kg/injection, schedule: Q04DX003 (ip), vehicle: other 102 % of control

CCCCN(CCCC)CC(O)c1cccc2c1cc(Cl)c1ccccc12 (centres undefined)
inactive: [10] 102 % of control | [11] 97 % of control | [12] 91 % of control

O=C(OC(COC(c1ccccc1)(c1ccccc1)c1ccccc1)C(OC(=O)c1ccccc1)C(COC(c1ccccc1)(c1ccccc1)c1ccccc1)OC(=O)c1ccccc1)c1ccccc1 (centres undefined)
inactive: [10] 93 % of control | [11] 93 % of control | [12] 93 % of control

COc1nc(N)nc2c1nnn2C1OC(CO)C(O)C1O (centres undefined)
inactive: dose: 44.0 mg/kg/injection, schedule: Q01DX001 (ip), vehicle: Klucel (hydroxypropylcellulose) (HPC) 108 % of control | dose: 66.0 mg/kg/injection, schedule: Q01DX001 (ip), vehicle: Klucel (hydroxypropylcellulose) (HPC) 103 % of control | dose: 150.0 mg/kg/injection, schedule: Q01DX001 (ip), vehicle: Klucel (hydroxypropylcellulose) (HPC) 122 % of control

C=CCSc1nc2c(=O)[nH]c(N)nc2n1C1OC(CO)C(O)C1O (centres undefined)
inactive: [13] 100 % of control | [14] 103 % of control

Oc1ccc(Cl)cc1Cc1cc(Cl)cc(Cc2cc(Cl)ccc2O)c1O
inactive: dose: 12.5 mg/kg/injection, schedule: Q01DX009 (ip), vehicle: saline with Tween-80 98 % of control | dose: 25.0 mg/kg/injection, schedule: Q01DX009 (ip), vehicle: saline with Tween-80 102 % of control | dose: 50.0 mg/kg/injection, schedule: Q01DX009 (ip), vehicle: saline with Tween-80 109 % of control

O=Cc1ccc(O)c(O)c1
inactive: dose: 100.0 mg/kg/injection, schedule: Q01DX Z (ip), vehicle: other 101 % of control and 102 % of control | dose: 150.0 mg/kg/injection, schedule: Q01DX Z (ip), vehicle: other 101 % of control and 107 % of control | dose: 160.0 mg/kg/injection, schedule: Q01DX Z (ip), vehicle: carboxymethylcellulose (CMC) 115 % of control | dose: 160.0 mg/kg/injection, schedule: Q01DX Z (ip), vehicle: other 122 % of control | dose: 225.0 mg/kg/injection, schedule: Q01DX Z (ip), vehicle: other 98 % of control and 120 % of control | dose: 240.0 mg/kg/injection, schedule: Q01DX Z (ip), vehicle: carboxymethylcellulose (CMC) 122 % of control | dose: 340.0 mg/kg/injection, schedule: Q01DX Z (ip), vehicle: other 101 % of control and 107 % of control | dose: 510.0 mg/kg/injection, schedule: Q01DX Z (ip), vehicle: other 113 % of control | dose: 540.0 mg/kg/injection, schedule: Q01DX Z (ip), vehicle: other 93 % of control | dose: 750.0 mg/kg/injection, schedule: Q01DX Z (ip), vehicle: other 113 % of control

NC(CSS(=O)(=O)O)=NCCSc1ccc(Cl)cc1
inactive: dose: 6.25 mg/kg/injection, schedule: Q01DX009 (ip), vehicle: Klucel (hydroxypropylcellulose) (HPC) 95 % of control | dose: 12.5 mg/kg/injection, schedule: Q01DX009 (ip), vehicle: Klucel (hydroxypropylcellulose) (HPC) 104 % of control | dose: 12.5 mg/kg/injection, schedule: Q04DX002 (ip), vehicle: Klucel (hydroxypropylcellulose) (HPC) 100 % of control | [18] 107 % of control | dose: 25.0 mg/kg/injection, schedule: Q04DX002 (ip), vehicle: Klucel (hydroxypropylcellulose) (HPC) 100 % of control
